For 4 compounds, carcinogen call results are on record in PubChem BioAssay AID1259411 (Chemical Carcinogenesis Research Information System (CCRIS), 2018).

The source made the active and inactive calls. No rule for the calls is given here.

The data set has as its system rodent carcinogenicity bioassays, tumor incidence. Nature of the data set: CCRIS carcinogenicity studies. The conditions noted are these: Dose: 0, Dose: 0. The method in brief: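 Archive of carcinogenicity, mutagenicity, tumor promotion and tumor inhibition results drawn from journals, NCI reports and other sources, expert-reviewed; covers 1985-2011 and is no longer updated.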

In the case of `Cl[C@@H]1C2(Cl)C3C4[C@@H]5O[C@@H]5[C@H]5C3[C@@](Cl)(C2(Cl)Cl)[C@]1(Cl)[C@@H]45` (some centres undefined), the carcinogen call was “inactive; negative” (Species: MOUSE, Strain/Sex: B6C3F1/FEMALE, Route: ORAL, 0.32, 0.64 PPM IN DIET, 0.32, 0.64 PPM IN DIET); “inactive; negative” (Species: MOUSE, Strain/Sex: B6C3F1/MALE, Route: ORAL, 0.32, 0.64 PPM IN DIET, 0.32, 0.64 PPM IN DIET); “inactive; negative” (Species: RAT, Strain/Sex: OSBORNE-MENDEL/FEMALE, Route: ORAL, 3.4, 7.5 PPM IN DIET, TWA, 3.4, 7.5 PPM IN DIET, TWA); “inactive; negative” (Species: RAT, Strain/Sex: OSBORNE-MENDEL/MALE, Route: ORAL, 5, 10 PPM IN DIET, 5, 10 PPM IN DIET).

`Clc1cnc(Oc2ccc(Oc3ncc(Cl)cc3Cl)cc2)c(Cl)c1`: the carcinogen call is “active; positive” (Species: MOUSE, Strain/Sex: C57BL/MALE, Route: INTRAGASTRIC, 3 MG/KG BW IN CORN OIL 1/2 WK FOR 24 WK (STUDY DURATION: 55 WK), Tumor Site: Type of Lesion: LIVER: HEPATOCELLULAR ADENOMA OR CARCINOMA); “active; positive” (Species: MOUSE, Strain/Sex: C57BL/MALE, Route: INTRAPERITONEAL, 3 MG/KG BW IN CORN OIL 1/2 WK FOR 24 WK (STUDY DURATION: 55 WK), Tumor Site: Type of Lesion: LIVER: HEPATOCELLULAR ADENOMA OR CARCINOMA); “active; positive” (Species: MOUSE, Strain/Sex: DBA/MALE, Route: INTRAGASTRIC, 3 MG/KG BW IN CORN OIL 1/2 WK FOR 24 WK (STUDY DURATION: 55 WK)); “active; positive” (Species: MOUSE, Strain/Sex: DBA/MALE, Route: INTRAPERITONEAL, 3 MG/KG BW IN CORN OIL 1/2 WK FOR 24 WK (STUDY DURATION: 55 WK), Tumor Site: Type of Lesion: LIVER: HEPATOCELLULAR ADENOMA OR CARCINOMA); “inactive; negative” (Species: RAT, Strain/Sex: F344/MALE, Route: INTRAGASTRIC, 30 MG/KG IN CORN OIL 1/2 WK FOR 71 WK (STUDY DURATION: 73 WK)); “inactive; negative” (Species: RAT, Strain/Sex: F344/MALE, Route: INTRAPERITONEAL, 30 MG/KG IN CORN OIL 1/2 WK FOR 71 WK (STUDY DURATION: 73 WK)).

On to `Oc1c(Cl)cc(Cl)c(Cl)c1Cc1c(O)c(Cl)cc(Cl)c1Cl`, for which the carcinogen call was “inactive; negative” (Species: RAT, Strain/Sex: F344/FEMALE, Route: ORAL, 17, 50, 150 PPM IN DIET, 17, 50, 150 PPM IN DIET) and “inactive; negative” (Species: RAT, Strain/Sex: F344/MALE, Route: ORAL, 17, 50, 150 PPM IN DIET, 17, 50, 150 PPM IN DIET).

Turning to `Cc1cc(C)c(S(=O)(=O)O)cc1N=Nc1cc(S(=O)(=O)O)c2ccccc2c1O`, the carcinogen call was “inactive; negative” (Species: MOUSE, Strain/Sex: SWISS-WEBSTER/FEMALE, Route: DERMAL, 1% IN 0.1 ML DISTILLED WATER 1/WK FOR 19.5 MO (STUDY DURATION: 19.5 MO)) and “inactive; negative” (Species: MOUSE, Strain/Sex: SWISS-WEBSTER/MALE, Route: DERMAL, 1% IN 0.1 ML DISTILLED WATER 1/WK FOR 19.5 MO (STUDY DURATION: 19.5 MO)).
